Measured values from a compilation of properties of binary mixtures (doi:10.1016/j.molliq.2016.11.074).

Assay: xn = mol fraction of the nth substance listed
Conditions: 100 kPa

O + CC[n+]1ccn(C)c1.CS(=O)(=O)[O-]
Conditions | electrical conductivity [S/m]
298.15 K, x1 = 1 | 0.0002

CC[n+]1ccn(C)c1.CS(=O)(=O)[O-] + O
Conditions | electrical conductivity [S/m] | speed of sound [m/s]
293.15 K, x2 = 0.0015 | – | 1779
293.15 K, x2 = 0.1905 | – | 1793
293.15 K, x2 = 0.3226 | – | 1808
293.15 K, x2 = 0.4301 | – | 1817
293.15 K, x2 = 0.619 | – | 1851
293.15 K, x2 = 0.7573 | – | 1853
293.15 K, x2 = 0.9048 | – | 1803
298.15 K, x1 = 0.0119 | 2.19 | –
298.15 K, x2 = 0 | 0.45 | 1766
298.15 K, x2 = 0.191 | 0.707 | –
298.15 K, x2 = 0.3226 | – | 1795
298.15 K, x2 = 0.3233 | 0.851 | –
298.15 K, x2 = 0.5054 | – | 1818
298.15 K, x2 = 0.5057 | 1.24 | –
298.15 K, x2 = 0.6206 | – | 1840
298.15 K, x2 = 0.7542 | 2.37 | –
298.15 K, x2 = 0.7573 | – | 1846
298.15 K, x2 = 0.902 | 3.74 | –
298.15 K, x2 = 0.9032 | – | 1791
298.15 K, x2 = 0.9651 | 3.87 | –
303.15 K, x2 = 0 | – | 1753
303.15 K, x2 = 0.3241 | – | 1784
303.15 K, x2 = 0.427 | – | 1793
303.15 K, x2 = 0.5069 | – | 1807
303.15 K, x2 = 0.7542 | – | 1841
303.15 K, x2 = 0.9048 | – | 1779
303.15 K, x2 = 0.9662 | – | 1680
308.15 K, x2 = 0 | – | 1743
308.15 K, x2 = 0.192 | – | 1757
308.15 K, x2 = 0.3241 | – | 1771
308.15 K, x2 = 0.4286 | – | 1783
308.15 K, x2 = 0.5054 | – | 1795
308.15 K, x2 = 0.6206 | – | 1818
308.15 K, x2 = 0.7558 | – | 1838
308.15 K, x2 = 0.9032 | – | 1765
313.15 K, x2 = 0.192 | – | 1745
313.15 K, x2 = 0.3241 | – | 1760
313.15 K, x2 = 0.5084 | – | 1784
313.15 K, x2 = 0.6206 | – | 1808
313.15 K, x2 = 0.7558 | – | 1830
313.15 K, x2 = 0.9662 | – | 1668
